**Q.** Which results are given for `Nc1ncnc2c1ncn2[C@@H]1O[C@H](CO)[C@@H](O)[C@H]1O`?
**A.** solubility (mole fraction) (in DMF, 278.15 K): 0.00414; solubility (mole fraction) (in DMF, 283.15 K): 0.00502; solubility (mole fraction) (in DMF, 288.15 K): 0.00594; solubility (mole fraction) (in DMF, 293.15 K): 0.00687; solubility (mole fraction) (in DMF, 298.15 K): 0.00784; solubility (mole fraction) (in DMF, 303.15 K): 0.00906; solubility (mole fraction) (in DMF, 308.15 K): 0.00993; solubility (mole fraction) (in DMF, 313.15 K): 0.0108; solubility (mole fraction) (in DMF, 318.15 K): 0.012; solubility (mole fraction) (in DMF, 323.15 K): 0.0127; solubility (mole fraction) (in DMSO, 293.15 K): 0.00262; solubility (mole fraction) (in DMSO, 298.15 K): 0.00299; solubility (mole fraction) (in DMSO, 303.15 K): 0.00348; solubility (mole fraction) (in DMSO, 308.15 K): 0.00394; solubility (mole fraction) (in DMSO, 313.15 K): 0.00442; solubility (mole fraction) (in DMSO, 318.15 K): 0.00488; solubility (mole fraction) (in DMSO, 323.15 K): 0.00537; solubility (mole fraction) (in NMP, 278.15 K): 0.0321; solubility (mole fraction) (in NMP, 283.15 K): 0.035; solubility (mole fraction) (in NMP, 288.15 K): 0.0376; solubility (mole fraction) (in NMP, 293.15 K): 0.0407; solubility (mole fraction) (in NMP, 298.15 K): 0.0437; solubility (mole fraction) (in NMP, 303.15 K): 0.0467; solubility (mole fraction) (in NMP, 308.15 K): 0.0496; solubility (mole fraction) (in NMP, 313.15 K): 0.0522; solubility (mole fraction) (in NMP, 318.15 K): 0.0554; solubility (mole fraction) (in NMP, 323.15 K): 0.0582; solubility (mole fraction) (in propylene glycol, 278.15 K): 0.00352; solubility (mole fraction) (in propylene glycol, 283.15 K): 0.00375; solubility (mole fraction) (in propylene glycol, 288.15 K): 0.004; solubility (mole fraction) (in propylene glycol, 293.15 K): 0.00431; solubility (mole fraction) (in propylene glycol, 298.15 K): 0.00464; solubility (mole fraction) (in propylene glycol, 303.15 K): 0.00497; solubility (mole fraction) (in propylene glycol, 308.15 K): 0.00537; solubility (mole fraction) (in propylene glycol, 313.15 K): 0.0058; solubility (mole fraction) (in propylene glycol, 318.15 K): 0.00623; solubility (mole fraction) (in propylene glycol, 323.15 K): 0.00665; solubility (mole fraction) (in water, 278.15 K): 0.00019; solubility (mole fraction) (in water, 283.15 K): 0.000237; solubility (mole fraction) (in water, 288.15 K): 0.00029; solubility (mole fraction) (in water, 293.15 K): 0.000353; solubility (mole fraction) (in water, 298.15 K): 0.000426; solubility (mole fraction) (in water, 303.15 K): 0.000516; solubility (mole fraction) (in water, 308.15 K): 0.000611; solubility (mole fraction) (in water, 313.15 K): 0.000731; solubility (mole fraction) (in water, 318.15 K): 0.000876; solubility (mole fraction) (in water, 323.15 K): 0.00105

Source: BigSolDB 2.1
